Measurements as given in PubChem BioAssay (NCI).
“And” between values parts separate entries of the source, which are not always exact repeats. Equal values may be shown once.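 Grown in 96-well plates, cells were treated for 48 hours with each compound at five concentrations. Insufficient inhibition: endpoint recorded as highest concentration tested. Abbreviation: GI50, concentration required for 50% inhibition of growth. TGI is the concentration that stops growth completely.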 Where a SMILES comes first, the peptide text is derived from it. [ ]: non-standard residue; d: D form. Orn = NCCC[CH](N)C(=O)O

Columns and labels:
Experiment in all cases: growth of human tumour cells (NCI), 48 h
[1] = system: MCF7 breast
[2] = system: TK-10 renal
[3] = system: SK-MEL-2 melanoma
[4] = system: SN12C renal
[5] = system: NCI-H460 lung
[6] = system: ACHN renal
[7] = system: HL-60(TB) leukemia
[8] = system: LOX IMVI melanoma
[9] = system: SF-295 CNS
[10] = system: HT29 colon

SMILES	GI50 [1]	TGI [1]	GI50 [2]	TGI [2]	GI50 [3]	TGI [3]	GI50 [4]	TGI [4]	GI50 [5]	TGI [5]	GI50 [6]	TGI [6]	GI50 [7]	TGI [7]	GI50 [8]	TGI [8]	GI50 [9]	TGI [9]	GI50 [10]	TGI [10]
CCOC(=O)C1=C(N)Oc2cc(OC)ccc2C1c1ccc(F)c(F)c1 (stereo not drawn)	0.452 µM	18.7 µM	9.5 µM	21.8 µM	0.542 µM	15.8 µM	4.97 µM	19.5 µM	1.01 µM	15.2 µM	5.74 µM	19.8 µM	0.404 µM	4.8 µM	1.36 µM	19 µM	1.91 µM	15.5 µM	0.481 µM	11 µM
Cn1cc(C2=C(c3cccc(NCC(O)CO)c3)C(=O)NC2=O)c2cc(Cl)ccc21 (stereo not drawn)	0.356 µM	12.6 µM	5.67 µM	16.8 µM	3.58 µM	10 µM	4.62 µM	16.5 µM	5.45 µM	> 25 µM	3.53 µM	> 19.6 µM	6.9 µM	17.1 µM	3.05 µM	15.1 µM	0.237 µM	8.94 µM	2.78 µM	11.8 µM
O=C(Nc1cc(Cl)cc(Cl)c1)c1ccc(NC2=C(Cl)C(=O)N(Cc3ccccc3)C2=O)cc1	1.29 µM	4.86 µM	19.5 µM	51.5 µM	12.7 µM	33.9 µM	6.83 µM	22.6 µM	1.8 µM	4.51 µM	1.82 µM	7.77 µM	1.55 µM	4.43 µM	2.21 µM	5.86 µM	2.49 µM	13.6 µM	16.8 µM	> 100 µM
CNC(=S)N/N=C(/C)CCC/C(C)=N/NC(=S)NC	–	0.563 µM	–	> 100 µM	–	> 100 µM	–	> 100 µM	–	> 100 µM	–	> 100 µM	–	> 100 µM	–	44.2 µM	–	> 100 µM	–	> 100 µM
CC(C)CC1NC(=O)C(CCCN)NC(=O)C(C(C)C)NC(=O)C2CCCN2C(=O)C(Cc2ccccc2)NC(=O)C(CC(C)C)NC(=O)C(CCCN)NC(=O)C(C(C)C)NC(=O)C2CCCN2C(=O)C(Cc2ccccc2)NC1=O (stereo not drawn) (cyclo(FPV[Orn]LFPV[Orn]L); configuration not given here)	0.0109 µM	0.373 µM and 0.102 µM	0.0213 µM and 0.104 µM	1.51 µM and 5.71 µM	0.00939 µM and 0.0243 µM	0.0404 µM and 0.0891 µM	0.0111 µM and 0.0288 µM	0.419 µM and 1.13 µM	0.0111 µM and 0.0287 µM	0.0385 µM and 0.107 µM	0.0961 µM and 0.0816 µM	3.25 µM and 2.21 µM	0.0151 µM and 0.0371 µM	0.104 µM and 0.251 µM	0.0101 µM and 0.0221 µM	0.0474 µM and 0.054 µM	0.00644 µM and 0.0206 µM	0.0186 µM and 0.0735 µM	0.0133 µM and 0.0363 µM	0.266 µM and 1.22 µM
COc1ccc(-c2oncc2-c2cc(OC)c3c(c2)OCO3)cc1	1.59 µM	> 100 µM	7.3 µM	> 100 µM	2.88 µM	> 29.5 µM	5.23 µM	> 100 µM	3.58 µM	> 100 µM	4.81 µM	> 100 µM	2.53 µM	> 26.5 µM	4.01 µM	> 60.1 µM	2.13 µM	10.3 µM	1.69 µM	13.7 µM
O=S(=O)(c1ccccc1)C1CN(Cc2ccccc2)CCN(Cc2ccccc2)C1	–	> 100 µM	–	> 100 µM	–	> 100 µM	–	> 100 µM	–	> 100 µM	–	> 100 µM	–	34.4 µM	–	> 61.5 µM	–	> 100 µM	–	> 100 µM
CCCNNC(=O)c1ccc(CNC(=O)/C=C/c2ccccc2)cc1	0.216 µM	> 100 µM	0.0343 µM	0.577 µM	0.199 µM	–	0.313 µM	> 100 µM	0.286 µM	> 100 µM	0.143 µM	0.592 µM	0.219 µM	> 100 µM	0.139 µM	0.306 µM	0.164 µM	0.596 µM	0.12 µM	> 100 µM
CC(=O)/C=C/c1ccc(N(C)Cc2ccc(C(C)(C)C)cc2)cc1	45.5 µM	318 µM	348 µM	890 µM	164 µM	344 µM	141 µM	300 µM	144 µM	376 µM	137 µM	271 µM	69.1 µM	277 µM	78.2 µM	208 µM	162 µM	576 µM	58.4 µM	–
CCNCCNc1cc(C2CCCC2)c(C#N)c2nc3ccccc3n12	2.58 µM	13.7 µM	1.84 µM	5.14 µM	3.91 µM	16.1 µM	3.61 µM	12.9 µM	2.75 µM	7.19 µM	1.91 µM	4 µM	2.01 µM	4.3 µM	1.76 µM	3.3 µM	1.7 µM	3.46 µM	2.37 µM	5.98 µM
CCC1=C[C@H]2CN(CCc3c([nH]c4ccccc34)[C@@](C(=O)OC)(c3cc4c(cc3OC)N(C)[C@H]3[C@@](O)(C(=O)OC)[C@H](OC(C)=O)[C@]5(CC)[C@@H]6C[C@@H]6CN6CC[C@]43[C@@H]65)C2)C1	0.0131 µM	3.61 µM	3.33 µM	8.13 µM	0.0752 µM	4.64 µM	0.0932 µM	4.99 µM	0.0383 µM	2.65 µM	0.144 µM	6.02 µM	0.0265 µM	0.14 µM	0.0229 µM	3.4 µM	0.0142 µM	3.15 µM	0.0113 µM	2.91 µM
